Data reported in paper PMC12250302, “Synthesis, Antimicrobial Activities, and Model of Action of Novel Tetralone Derivatives Containing Aminoguanidinium Moiety” (International Journal of Molecular Sciences, 2025).
Values after ≈ are worked out from the molar mass of the structure shown.

Experiments:
[1] = test system: S. aureus ATCC 29213; assay: MIC and MBC testing, broth microdilution; assay type: cell-based, Staphylococcus aureus; details: Staphylococcus aureus, ATCC29213, S. aureus ATCC 29213
Summary of the method: (§1)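 Broth microdilution in MH broth, 2-fold compound series from DMSO stocks; inoculum from log-phase culture diluted to 1 × 10^6 CFU/mL prior to addition; 37 °C, 18 h.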

[2] = test system: K. pneumoniae ATCC 700603; assay: MIC and MBC testing, broth microdilution; assay type: cell-based, Klebsiella pneumoniae; details: Klebsiella pneumoniae
Summary of the method: as §1

[3] = test system: A. baumannii ATCC 19606; assay: MIC and MBC testing, broth microdilution; assay type: cell-based, Acinetobacter baumannii; details: Acinetobacter baumannii
Summary of the method: as §1

[4] = test system: MRSA-2 biofilm; assay: Biofilm elimination assay (crystal violet); assay type: cell-based, Staphylococcus aureus; details: 0.25 μg/mL, 24 h
Procedure: The ability of 2D to eliminate biofilm was evaluated. MRSA-2 (1 × 10^6 CFU/mL) was incubated in 96-well plates for 24 h until biofilm formation. The planktonic bacteria were discarded and washed thrice with PBS. […] According to the above method, the OD575 nm value was detected after the following steps: PBS washing, methanol fixation, crystal violet staining, and ethanol incubation.

[5] = test system: MRSA-2; assay: Bactericidal time-kill kinetics assay; assay type: cell-based, Staphylococcus aureus; details: 2, 4 and 8 µg/mL, 0-24 h
Procedure: (§2) S. aureus (ATCC 29213) and MRSA-2 were cultivated in MH broth until the logarithmic growth phase and then diluted to 1 × 10^7 CFU/mL, respectively. […] After a specified time interval (0, 1, 2, 4, 8, 12, and 24 h), the culture suspension was serially diluted in 0.9% saline over a concentration range from 10^−1 to 10^−9. A volume of 100 μL of the obtained diluent and culture solution was dispensed onto a sterile MH agar plate. The plate was subsequently cultured at 37 °C for a duration of 24 h. The total number of colonies was enumerated and expressed as log10(CFU/mL).

[6] = test system: S. aureus (ATCC 29213); assay: Bactericidal time-kill kinetics assay; assay type: cell-based, Staphylococcus aureus; details: 2, 4 and 8 µg/mL, 0-24 h
Procedure: as §2

Structure (SMILES): [H]/N=C(\N)NN=C1CCCc2cc(OCCCCCCC)ccc21 [Compound 2D, (E)-2-(6-(heptyloxy)-3,4-dihydronaphthalen-1(2H)-ylidene)hydrazine-1-carboximidamide]
- MIC ([1]; 18 h, read-out: MIC): 0.5 µg/mL (≈ 1.58 µM)
- MBC ([1]; read-out: MBC): 4 µg/mL (≈ 12.6 µM)
- MIC ([2]; ATCC700603, 18 h, read-out: MIC): 16 µg/mL (≈ 50.6 µM)
- MBC ([2]; ATCC700603, read-out: MBC): 32 µg/mL (≈ 101 µM)
- MIC ([3]; ATCC19606, 18 h, read-out: MIC): 4 µg/mL (≈ 12.6 µM)
- MBC ([3]; ATCC19606, read-out: MBC): 16 µg/mL (≈ 50.6 µM)
- biofilm elimination rate [4]: 21.4%
- time-kill response [5]: concentration-dependent and time-dependent bactericidal response
- time-kill response [6]: concentration-dependent and time-dependent bactericidal response
